This data set has as its system Dkk1-LRP5-TCF-Luciferase. The data set can be described thus: Functional Dkk1-LRP5-TCF-Luciferase Assay in U2OS Cells. Particulars: for fold induction at 2 µM / fold induction at 20 µM / EC50: Homo sapiens, U2OS; for fold induction at 2 µM: read-out: B = TCF ACTIVITY/DMSO CONTROL Fold induction @ 2.0 uM, 2.0 uM compound; for fold induction at 20 µM: read-out: C = TCF ACTIVITY/DMSO CONTROL Fold induction @ 20.0 uM, 20.0 uM compound; for A = MAX FOLD Induction/DMSO CONTROL: maximum fold induction over DMSO control.

The results in this text go back to patent US20090054392A1, “NAPHTHYLPYRIMIDINE, NAPHTHYLPYRAZINE AND NAPHTHYLPYRIDAZINE ANALOGS AND THEIR USE AS AGONISTS OF THE WNT-BETA-CATENIN CELLULAR MESSAGING SYSTEM” (Wyeth, priority 2007, published 2009).

As to `O=C(NCC1CCN(c2nccc(-c3ccc4ccccc4c3)n2)CC1)N1CCCC1` [N-({1-[4-(2-naphthyl)pyrimidin-2-yl]piperidin-4-yl}methyl)pyrrolidine-1-carboxamide], the fold induction at 2 µM came to 0.91 and the fold induction at 20 µM worked out at 1.13.
Regarding `NC(=O)NCC1CCN(c2nccc(-c3ccc4ccccc4c3)n2)CC1` [N-({1-[4-(2-naphthyl)pyrimidin-2-yl]piperidin-4-yl}methyl)urea], the fold induction at 2 µM came out at 1.29 and the fold induction at 20 µM amounted to 1.18.
In the same order, the values of `CC(=O)NCC1CCN(c2nccc(-c3ccc4ccccc4c3)n2)C1` (stereo not drawn) [N-({1-[4-(2-naphthyl)pyrimidin-2-yl]pyrrolidin-3-yl}methyl)acetamide] are 0.95 and 1.5.
`O=C(NCC1CCN(c2nccc(-c3ccc4ccccc4c3)n2)C1)c1ccccc1` (stereo not drawn) [N-({1-[4-(2-naphthyl)pyrimidin-2-yl]pyrrolidin-3-yl}methyl)benzamide]: the fold induction at 2 µM turned out to be 1.06 and the fold induction at 20 µM amounted to 1.03.
In the case of `O=CNCC1CCN(c2nccc(-c3ccc4ccccc4c3)n2)C1` (stereo not drawn) [N-({1-[4-(2-naphthyl)pyrimidin-2-yl]pyrrolidin-3-yl}methyl)formamide], the fold induction at 2 µM worked out at 1.09 and the fold induction at 20 µM came to 1.68.
With `CS(=O)(=O)NCC1CCN(c2nccc(-c3ccc4ccccc4c3)n2)C1` (stereo not drawn) [N-({1-[4-(2-naphthyl)pyrimidin-2-yl]pyrrolidin-3-yl}methyl)methanesulfonamide], the fold induction at 2 µM amounted to 0.88 and the fold induction at 20 µM was determined as 1.63.
By EC50 is commonly meant the concentration needed to bring the measured effect to its halfway point. A lower EC50 goes with an effect from little substance. As for `NC(=O)NCC1CCN(c2nccc(-c3ccc4ccccc4c3)n2)C1` (stereo not drawn) [N-({1-[4-(2-naphthyl)pyrimidin-2-yl]pyrrolidin-3-yl}methyl)urea], the EC50 is 19.4 µM, the fold induction at 2 µM worked out at 1.14, the fold induction at 20 µM is 2.34 and the “A = MAX FOLD Induction/DMSO CONTROL” value is recorded as 1.720 fold.
Turning to `Cc1ccc(S(=O)(=O)N2CC(CNc3nccc(-c4ccc5ccccc5c4)n3)C2)cc1` [N-({1-[(4-methylphenyl)sulfonyl]azetidin-3-yl}methyl)-4-(2-naphthyl)pyrimidin-2-amine], the fold induction at 2 µM worked out at 1.45 and the fold induction at 20 µM stood at 1.2.
With `Cc1ccc(S(=O)(=O)N2CCC(CNc3nccc(-c4ccc5ccccc5c4)n3)CC2)cc1` [N-({1-[(4-methylphenyl)sulfonyl]piperidin-4-yl}methyl)-4-(2-naphthyl)pyrimidin-2-amine], the fold induction at 2 µM was determined as 1.17 and the fold induction at 20 µM is 0.92.
As for `CS(=O)(=O)N1CCC(Nc2nccc(-c3ccc4ccccc4c3)n2)CC1` [N-[1-(methylsulfonyl)piperidin-4-yl]-4-(2-naphthyl)pyrimidin-2-amine], it took 0.06 µM to reach a half-maximal effect (EC50), the fold induction at 2 µM was found to be 2.24, the fold induction at 20 µM is 1.54 and the “A = MAX FOLD Induction/DMSO CONTROL” value is listed as 1.730 fold.
Regarding `O=C(N1CCOCC1)N1CCC(Nc2nccc(-c3ccc4ccccc4c3)n2)CC1` [N-[1-(morpholin-4-ylcarbonyl)piperidin-4-yl]-4-(2-naphthyl)pyrimidin-2-amine], the fold induction at 2 µM amounted to 1.03 and the fold induction at 20 µM came out at 1.07.
Take `c1ccc2cc(-c3ccnc(NC4CCCNCC4)n3)ccc2c1` (stereo not drawn) [N-[4-(2-naphthyl)pyrimidin-2-yl]azepan-4-amine]: a half-maximal response (EC50) required 16.1 µM, the fold induction at 2 µM stood at 1.11, the fold induction at 20 µM was 4.87 and the “A = MAX FOLD Induction/DMSO CONTROL” value was 6.080 fold.
Consider `CC(=O)N1CC(CNc2nccc(-c3ccc4ccccc4c3)n2)C1` [N-[(1-acetylazetidin-3-yl)methyl]-4-(2-naphthyl)pyrimidin-2-amine], for which the fold induction at 2 µM turned out to be 1.8.
For `CC(=O)N1CCC(CNc2nccc(-c3ccc4ccccc4c3)n2)CC1` [N-[(1-acetylpiperidin-4-yl)methyl]-4-(2-naphthyl)pyrimidin-2-amine], the fold induction at 2 µM is 1.02 and the fold induction at 20 µM came out at 1.33.
Take `O=C(c1ccccc1)N1CC(CNc2nccc(-c3ccc4ccccc4c3)n2)C1` [N-[(1-benzoylazetidin-3-yl)methyl]-4-(2-naphthyl)pyrimidin-2-amine]: the fold induction at 2 µM is 1.5.
With `O=C(c1ccccc1)N1CCC(CNc2nccc(-c3ccc4ccccc4c3)n2)CC1` [N-[(1-benzoylpiperidin-4-yl)methyl]-4-(2-naphthyl)pyrimidin-2-amine], the fold induction at 2 µM is 1.44 and the fold induction at 20 µM came out at 0.627.
Take `c1ccc(CN2CCC(CNc3nccc(-c4ccc5ccccc5c4)n3)CC2)cc1` [N-[(1-benzylpiperidin-4-yl)methyl]-4-(2-naphthyl)pyrimidin-2-amine]: the fold induction at 20 µM amounted to 1.49.
In the case of `CCN1CCC(CNc2nccc(-c3ccc4ccccc4c3)n2)CC1` [N-[(1-ethylpiperidin-4-yl)methyl]-4-(2-naphthyl)pyrimidin-2-amine], the 50% effective concentration (EC50) was 3.94 µM, the fold induction at 2 µM was found to be 1.5, the fold induction at 20 µM was 0.908 and the “A = MAX FOLD Induction/DMSO CONTROL” value is 3.450 fold.
On to `CS(=O)(=O)N1CC[C@@H](Nc2nccc(-c3ccc4ccccc4c3)n2)C1` [N-[(3R)-1-(methylsulfonyl)pyrrolidin-3-yl]-4-(2-naphthyl)pyrimidin-2-amine], for which the EC50 was 3.55 µM, the fold induction at 20 µM turned out to be 3.46 and the “A = MAX FOLD Induction/DMSO CONTROL” value is on record as 3.380 fold.
Take `O=C(N1CCOCC1)N1CC[C@@H](Nc2nccc(-c3ccc4ccccc4c3)n2)C1` [N-[(3R)-1-(morpholin-4-ylcarbonyl)pyrrolidin-3-yl]-4-(2-naphthyl)pyrimidin-2-amine]: the fold induction at 20 µM is 2.35 and the “A = MAX FOLD Induction/DMSO CONTROL” value is 1.340 fold.
Regarding `CC(=O)N1CC[C@@H](Nc2nccc(-c3ccc4ccccc4c3)n2)C1` [N-[(3R)-1-acetylpyrrolidin-3-yl]-4-(2-naphthyl)pyrimidin-2-amine], the 50% effective concentration (EC50) was found to be 14.2 µM, the fold induction at 2 µM is 1.21, the fold induction at 20 µM amounted to 2.06 and the “A = MAX FOLD Induction/DMSO CONTROL” value came out at 2.980 fold.
For the compound `O=C(c1ccccc1)N1CC[C@@H](Nc2nccc(-c3ccc4ccccc4c3)n2)C1` [N-[(3R)-1-benzoylpyrrolidin-3-yl]-4-(2-naphthyl)pyrimidin-2-amine], the fold induction at 2 µM was determined as 1.84.
Take `CS(=O)(=O)N1CC[C@H](Nc2nccc(-c3ccc4ccccc4c3)n2)C1` [N-[(3S)-1-(methylsulfonyl)pyrrolidin-3-yl]-4-(2-naphthyl)pyrimidin-2-amine]: the response was half-maximal at 2.9 µM (EC50), the fold induction at 2 µM was 1.41, the fold induction at 20 µM was 2.26 and the “A = MAX FOLD Induction/DMSO CONTROL” value turned out to be 2.585 fold.
Take `O=C(N1CCOCC1)N1CC[C@H](Nc2nccc(-c3ccc4ccccc4c3)n2)C1` [N-[(3S)-1-(morpholin-4-ylcarbonyl)pyrrolidin-3-yl]-4-(2-naphthyl)pyrimidin-2-amine]: the fold induction at 2 µM is 1.12 and the fold induction at 20 µM came to 1.94.
On to `CC(=O)N1CC[C@H](Nc2nccc(-c3ccc4ccccc4c3)n2)C1` [N-[(3S)-1-acetylpyrrolidin-3-yl]-4-(2-naphthyl)pyrimidin-2-amine], for which the fold induction at 2 µM was 1.15 and the fold induction at 20 µM came to 1.66.
`O=C(c1ccccc1)N1CC[C@H](Nc2nccc(-c3ccc4ccccc4c3)n2)C1` [N-[(3S)-1-benzoylpyrrolidin-3-yl]-4-(2-naphthyl)pyrimidin-2-amine]: the fold induction at 2 µM was found to be 1.23.
`CN(c1nccc(-c2ccc3ccccc3c2)n1)[C@H]1CC[C@@H](CN)CC1` [N-[cis-4-(aminomethyl)cyclohexyl]-N-methyl-4-(2-naphthyl)pyrimidin-2-amine]: the fold induction at 2 µM is 2.7.
On to `CN(c1nccc(-c2ccc3ccccc3c2)n1)[C@H]1CC[C@H](CN)CC1` [N-[trans-4-(aminomethyl)cyclohexyl]-N-methyl-4-(2-naphthyl)pyrimidin-2-amine], for which the fold induction at 2 µM was 1.4.
Turning to `c1ccc(CNc2nccc(-c3ccc4ccccc4c3)n2)cc1` [N-benzyl-4-(2-naphthyl)pyrimidin-2-amine], the fold induction at 2 µM turned out to be 1.71.
Same read-out and setting: the value for `CN(CCN(C)[C@@H]1CCN(c2nccc(-c3ccc4ccccc4c3)n2)C1)Cc1ccccc1` [N-benzyl-N,N′-dimethyl-N′-{(3R)-1-[4-(2-naphthyl)pyrimidin-2-yl]pyrrolidin-3-yl}ethane-1,2-diamine] was 1.6; that for `CCCCNc1nccc(-c2ccc3ccccc3c2)n1` [N-butyl-4-(2-naphthyl)pyrimidin-2-amine] was 1.51.
For `c1ccc2cc(-c3ccnc(NC4CCCCC4)n3)ccc2c1` [N-cyclohexyl-4-(2-naphthyl)pyrimidin-2-amine], the fold induction at 2 µM was found to be 1.21, the fold induction at 20 µM was found to be 1.51 and the “A = MAX FOLD Induction/DMSO CONTROL” value was 1.230 fold.
In the case of `O=C(NC1CCCCC1)N1CCC(CNc2nccc(-c3ccc4ccccc4c3)n2)CC1` [N-cyclohexyl-4-({[4-(2-naphthyl)pyrimidin-2-yl]amino}methyl)piperidine-1-carboxamide], the fold induction at 2 µM amounted to 1.81, the fold induction at 20 µM is 0.067 and the “A = MAX FOLD Induction/DMSO CONTROL” value is 1.230 fold.
On to `O=C(NC1CCCCC1)N1CCC(Nc2nccc(-c3ccc4ccccc4c3)n2)CC1` [N-cyclohexyl-4-{[4-(2-naphthyl)pyrimidin-2-yl]amino}piperidine-1-carboxamide], for which the fold induction at 20 µM was found to be 1.45.
As to `c1ccc2cc(-c3ccnc(NC4CCCC4)n3)ccc2c1` [N-cyclopentyl-4-(2-naphthyl)pyrimidin-2-amine], the fold induction at 2 µM was found to be 1.95 and the fold induction at 20 µM is 0.83.
For `CCNC(=O)N1CC(CNc2nccc(-c3ccc4ccccc4c3)n2)C1` [N-ethyl-3-({[4-(2-naphthyl)pyrimidin-2-yl]amino}methyl)azetidine-1-carboxamide], the fold induction at 2 µM came out at 1.57.
